| melting point [°C] | Structure (SMILES) |
| --- | --- |
| 76 | CCCC(=O)Nc1ccccc1C(F)(F)F |
| 184 to 186 | CC1C=CC(C(=O)O)n2c(=O)n(CCC(=O)O)c(=O)n21 (configuration not stated) |
| 258 to 260 | CNC(=O)Nc1ccc(N2CCN(c3ccncc3)CC2)cc1 |
| 249 to 250 | CN1CCCN(C)P1(=O)Cc1ccc(NC(=O)C2=Cc3cc(-c4ccccc4)ccc3CC2)cc1 |
| 61 to 62 | CCCCCCCCCCCCCCCCSCC(O)COC(c1ccccc1)(c1ccccc1)c1ccccc1 (configuration not stated) |
| 85 to 87 | CC(C(=O)O)c1ccc(Sc2nccs2)cc1 (configuration not stated) |
| 200 to 202 | Cc1ccc(S(=O)(=O)N[C@@H]2COC(C)(C)OC[C@H]2OS(=O)(=O)c2ccc(C)cc2)cc1 (relative stereo) |
| 296 to 297 | O=C1Nc2c(F)cc(F)cc2C1c1ncnc2nn(C3CCCC3)cc12 (configuration not stated) |
| 199 to 201 | CC(C)(CO)COc1ccc(-c2c(C(N)=O)oc3ccccc23)cc1C#N |
| 107 to 111 | Cc1ccc(C(=O)Cc2ccccc2)cc1 |
| 172 to 174 | CC(=O)OCC(=O)c1cc2c(s1)SCCc1cc(=O)n(-c3ccc(Cl)cc3)nc1-2 |
| 115 to 116 | CNC(=O)N(N=Cc1ccccc1)c1nnc(C(C)(C)C)s1 |
| 128 to 130 | C=C(c1ccc(I)cc1)C(O)(Cn1cncn1)c1ccccc1Cl (configuration not stated) |
| 81 to 83 | CC(C)(C)OC(=O)NC[C@H](O)[C@@H](O)[C@H](O)[C@H](O)CO |
| 256 to 258 | NC(=O)c1cc(N2CCN(Cc3ccc(F)cc3)C2=O)n[nH]1 |
| 66 to 67 | CCOC(=O)C(C)(C)c1nc2ccc(Cl)nn2c1Cl |
| 195 to 200 | Cc1cc2c3c(c1)C(c1ccccc1)C(=O)N3CC(=O)N2 (configuration not stated) |
| > 290 | COCc1cc(O)nc2nc(N)ccc12 |
| 140 to 141 | CCOC(=O)Cc1ccc(-c2nc(COc3ccc(COc4nn(-c5ccccc5)cc4/C=C/c4cn(CC)cn4)cc3OC)c(C)o2)cc1 |
| 201 to 203 | Cc1cc(-c2nc3cc(F)cc(F)c3s2)ccc1N |
| 138 to 140 | COc1cc(-n2nc3ccc(Cl)cn3c2=O)c(F)cc1N |
| 81 to 82 | CCCCCCCCCCCCCCOC(=O)c1ccc(Cl)c(NC(=O)C(C(=O)c2ccccc2)N2C(=O)c3ccccc3C2=O)c1 (configuration not stated) |
| 78 | COC(=O)c1c(F)cc(OCCNC(=O)C2Cc3ccccc3N2S(=O)(=O)c2ccc(-c3cc(C(F)(F)F)ccc3Cl)cc2)cc1F (configuration not stated) |

| melting point [°C] | Structure (SMILES) |
| --- | --- |
| 154 to 163 | NC(=O)c1ccc(F)c2c1CC(N(CCCc1c[nH]c3c(Cl)cccc13)C1CCC1)CO2 (configuration not stated) |
| 227 to 231 | Brc1c(OCc2nnn[nH]2)ccc2cc(-c3csc(-c4ccccc4)n3)ccc12 |
| 123 to 124 | O=C(CC(c1ccccc1)c1ccccc1)N1CCN(CCc2cc3ccccc3o2)CC1 |
| 211 to 216 | CCOC(=O)c1cn(-c2nonc2C)c2nc(Cl)c(F)cc2c1=O |
| 228 to 230 | CN(C)C(=O)CCc1ccc2c(c1)nc(N)c1nc(CO)n(CC(C)(C)O)c12 |
| 245 to 248 | O=C1Nc2c(C(F)(F)F)cccc2C12COc1cc3c(cc12)OCO3 (configuration not stated) |
| 83.5 to 85 | COC(=O)C(C)(SC)c1ccc(N2CCCCC2)c(Cl)c1 (configuration not stated) |
| 80 to 85 | COc1cc(C)nc(C#N)n1 |
| 160 to 162 | Cc1ccc2cccc(OCc3c(Cl)ccc(S(=O)(=O)N(C)C(C)(C)C)c3Cl)c2n1 |
| 222 to 224 | CCc1cncc(-c2[nH]nc(C(=O)Cc3ccc4ccccc4c3)c2N)c1 |
| 143 to 144 | O=S(=O)(Nc1cccnc1Nc1ccccc1)c1cccc(Cl)c1 |
| > 250 | Cn1ncc(C(=O)N[C@H]2CCOC2)c1C(=O)Nc1ccn2nc(-c3ccccc3)nc2c1 |
| 158 to 160 | CP(C)(=O)CN1CCC(c2nn(-c3ccc(C(F)(F)F)cc3)c3ccccc23)CC1 |
| 65 | COC[C@H]1CN(c2ccc(CCC[C@@H](C)O)cc2)C(=O)O1 |
| 168 to 172 | COc1cc2oc(=O)c3c(c2cc1OC)CCN(CC(C)=O)C3 |
| 162 to 163 | CNc1ncnc2c1ncn2CCCN1CCN(c2ccccc2)CC1 |
| 83.5 | COC(=O)NN=Cc1ccnc2ccccc12 |
| 85 to 86 | COC(=O)Cc1ccccc1OCc1ccc(N(Cc2nc(-c3ccccc3)oc2C)C(=O)OC(C)(C)C)cc1 |
| 144 to 145 | N#Cc1ccc(OCc2ccc3c(c2)OCO3)cc1OC(C(=O)O)c1ccccc1Cl (racemic) |
| 46 to 47 | CCCCCCCCCCCc1nc2c(O)c(Cl)cc(Cl)c2cc1CCCCCCCCCC |
| 118 to 120 | CCCCCCCCNC(=O)c1ccc(O)c(O)c1 |
| 225 to 227 | COc1cc(N2C(=O)c3ccccc3C2=O)c2nc(Cl)cc(C)c2c1Oc1cccc(C(F)(F)F)c1 |
| > 230 | CSc1nn2c(N)cc(C)nc2c1S(=O)(=O)c1ccc2ccccc2c1 |

| melting point [°C] | Structure (SMILES) |
| --- | --- |
| 109 to 110 | O=C(Nc1ccccc1)C1=NOCCS1 |
| 191 to 192 | Cc1c(C)c2c(c(C)c1NC=O)OC(C)(C)C2=O |
| 124 | Cc1cc(O)c(SCc2cccc(F)c2)c(=O)o1 |
| 94 to 95 | CCOC(=O)c1cccc(-c2ccnc(OCCc3ccc(OC)c(OC)c3)n2)c1 |
| 233 to 234 | CN1CCC(N(C)C(=O)CNS(=O)(=O)c2ccc(Nc3nccc(Nc4ccc(F)cc4)n3)cc2)CC1 |
| 122 to 123 | O=C(NCc1cccnc1)c1ccnc(N2CCN(CC3CC3)C2=O)c1 |
| 156 to 157 | COCn1c(-c2ncc(CO)s2)cc2cccc(N(C)S(=O)(=O)c3cccs3)c21 |
| 173 to 175 | CC1Nc2ccccc2-c2c([N+](=O)[O-])cnn21 (configuration not stated) |
| 66 to 68 | Cc1c(CO)ncnc1N1CCOCC1 |
| 69 to 75 | Cc1cc(-n2c(C)ccc2-c2ccc(S(C)(=O)=O)cc2)ccc1-c1ccoc1 |
| 94 to 95 | CCCCNC(=O)C1CCCCC1(O)C(=O)c1ccc(OC)cc1 (configuration not stated) |
| 103 to 104 | CCCc1nc(NCc2ccccn2)nc(Nc2cccc(C(C)C)c2)n1 |
| 226 to 229 | COc1cc2c(cc1OC)S(=O)(=O)CCC(C(=O)N1CCN(C(=O)c3cc(OC)c(OC)c(OC)c3)CC1)=C2 |
| 192 to 198 | Cc1c(C(=O)O)ccc(S(C)(=O)=O)c1S(C)(=O)=O |
| 79 to 82 | COC(=O)CCc1ccc(NC(=O)C(Cn2ccnc2)NS(=O)(=O)c2ccc(Cl)cc2)cc1 (racemic) |
| 223 to 225 | Cn1cc(-c2ccccc2)c(=O)c(-c2cccc(O)c2)c1 |
| 157 to 160 | CCCOc1ccc(S(=O)(=O)NCc2ccncc2)cc1-c1nc2cc(N)c([N+](=O)[O-])cc2c(=O)[nH]1 |
| 136 to 137 | CC(=O)c1c(N=Cc2ccccc2)c(-c2ccccc2)n(Cc2ccc(Cl)cc2)c1C |
| 98 to 100 | CCn1c(C)c(C2(N(c3ccccc3)c3ccccc3)OC(=O)c3nccnc32)c2ccccc21 (configuration not stated) |
| 140 to 142 | c1cnnc(N=C2SC[C@@H]3Cc4ccccc4CN23)c1 |
| 98 to 99 | C=CCn1c(C)c(C)c2cnnc(OCc3ccc(Cl)cc3Cl)c21 |
| 253 | COc1cc2c(cc1OC)C(=Cc1cc(O)ccc1[N+](=O)[O-])OC2=O |
| 194 | CCOc1cc(C(CC(=O)O)N2Cc3ccccc3C2=O)ccc1OC (configuration not stated) |

| melting point [°C] | Structure (SMILES) |
| --- | --- |
| 65 to 69 | N#Cc1ccnc(Cl)c1Cl |
| 224 to 226 | CN(C)S(=O)(=O)c1cc(C(=O)O)cc([N+](=O)[O-])c1Oc1ccccc1 |
| 81 to 82 | COc1ccc(-c2csc(C)n2)cc1OC1CC2CCC1C2 (configuration not stated) |
| 98 to 99 | CCCCCCCCCCCCCCCCCCS(=O)(=O)c1cc2ccccc2cc1O |
| 152 to 154 | CN1CCN(c2cc(Sc3ccc(Cl)cc3)nc(-c3ccccc3)n2)CC1 |
| 132 | CCn1c2ccc(C(=O)CC(C)=O)cc2c2cc(C(=O)c3ccc(F)cc3C)ccc21 |
| 142 | Cc1cccc(NC(=O)NCCC(=O)N(CC(=O)OC(C)(C)C)c2ccccc2)c1 |
| 106 to 107 | CCOC(=O)C(Cc1ccccc1)NC(=O)N(N(CCCl)S(C)(=O)=O)S(C)(=O)=O (configuration not stated) |
| 37 to 38 | Cc1cc(C#N)cc(C)c1OCCCc1ccc(CO)o1 |
| 158 to 159 | COCc1ccc(-c2coc3ccc(-c4nnc(C)o4)cc23)cc1 |
| 218 to 219 | O=C(O)c1ccc(CN(C2CCOCC2)S(=O)(=O)c2ccc(Cl)cc2)cc1 |
| 125 to 127 | CCOC(=O)c1cc(NC(=O)c2ccc(Cl)cc2Cl)ccc1Oc1cncc(Cl)c1 |
| 310 | N#Cc1c(Cl)c2cccnc2[nH]c1=O |
| 132 | Cc1nn(C)c(C)c1-c1ccc(OC2SCC(O)C(O)C2O)cn1 (configuration not stated) |
| 9 | CON(C)C(=O)c1ccc(F)cc1 |
| 230 to 232 | CCCn1nc(C2CC2)c(C(=O)O)c1Cc1ccc(-c2ccccc2S(=O)(=O)NC(=O)c2ccccc2)cc1 |
| 173 | C[Si](C)(C)CCOC(=O)c1cccc(NC(=O)NCC(=O)O)c1 |
| 113 to 115 | OC1CCCc2ccc(OCc3ccc4ccccc4n3)cc21 (configuration not stated) |
| 120 to 123 | CCN(CC)CCOC(=C1C2CC3C(C2)C13)c1ccccc1 |
| 105 to 107 | C=CCNc1nc(NNC(C)(C)C)c2scc(C)c2n1 |

| Structure (SMILES) | melting point [°C] |
| --- | --- |
| CCOC(=O)C=Cc1cc(-c2ccc3c(c2)C(C)(C)CCC3(C)C)cs1 | 82 to 84 |
| Fc1ccc2c(C3CCNCC3)n[nH]c2c1 | 214 to 216 |
| O=c1oc2cc(O)cc(O)c2c(O)c1C1c2ccccc2Oc2c1c(=O)oc1cc(O)cc(O)c21 (configuration not stated) | > 300 |
| CC(C)NCC(O)c1cc(Cl)c(N)c(C(F)(F)F)c1 (configuration not stated) | 104 to 106 |
| c1ccc(-c2cccc(N(c3ccccc3)c3ccc4c(c3)Oc3ccc(N(c5ccccc5)c5cccc(-c6ccccc6)c5)cc3O4)c2)cc1 | 232 |
| O=C(CN1CC(c2ccc(Cl)cc2)CC1=O)N1CCNCC1 (configuration not stated) | 148 to 150 |
| CC(=O)C1CCC2C3CCC4CC(O)C(Br)CC4(C)C3CCC12C (configuration not stated) | 171 to 175 |
| CN1C(=O)CC(=O)N(c2ccccc2)c2cc(Cl)ccc21 | 166 to 168 |

Source: a melting point compilation (Tetko et al.; mined from patent text by program, amines drawn as free bases though some values may be those of a salt)
